How the values were obtained:
[1] = test system: false cleavers; assay: Test Example 4: herbicidal effect by soil treatment (Table 19, symbol Q); type: in vivo, false cleavers (Galium spurium)
Summary of the method: (§1)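 Pre-emergence style soil spray: seeds under ~1.5 cm sterilized diluvial soil received a uniform coat of emulsion diluted to the predetermined herbicide amount. Greenhouse 25–30° C; readout at week three on previously defined criteria.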

[2] = test system: false cleavers; assay: Test Example 5: herbicidal effect by foliage application, plastic box (Table 20, symbol Q); type: in vivo, false cleavers (Galium spurium); conditions: foliage application; for herbicidal effect grade, Q: false cleavers / effect on false cleavers (Q) / herbicidal effect on Q: false cleavers: 320 g/ha; for effect on false cleavers (Q): 3 weeks after application; for herbicidal effect on Q: false cleavers / Q: false cleavers, herbicidal effect (criteria 0-5): evaluated three weeks after application
Summary of the method: (§2)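 Plants were sown into sterilized diluvial soil under about 1.5 cm cover and kept in a greenhouse at 25° C. to 30° C. Fourteen days on, foliage received an even spray of the diluted emulsion. Herbicidal or crop effect was judged three weeks afterwards.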

[3] = test system: transplanted rice; assay: Test Example 1: effect on crop, application before weed generation under submerged conditions (Table 16, symbol a); type: in vivo; conditions: 320 g/ha applied herbicide
Description: [Test Example 1] Herbicidal Activity Test by Application before Weed Generation under Submerged Conditions After alluvial soil was placed into 1/10000 are of Wagner pot, water was poured and mixed to form a submerged condition having a water depth of 4 cm. Seeds of late watergrass, Japanese bulrush, and oval-leafed pondweed were sowed in a mixed manner in the aforementioned pot, and then 2.5 leaf stage rice plant seedlings were transplanted thereto. On the day of sowing seeds, the emulsion agent of the compound of the present invention prepared according to Formulation Example 2 was diluted with water so as to achieve a predetermined herbicide amount, and the diluted emulsion agent was applied to the surface of the water. The pot was placed in a greenhouse at 25° C. to 30° C. for growth of the plants. Three weeks after the herbicide application, the effect of the herbicide on each plant was evaluated according to the following criteria. Evaluation Criteria 5: Herbicidal rate of 90% or more (almost completely withered) 4: Herbicidal rate of 70% or more and less than 90% 3: Herbicidal rate of 40% or more and less than 70% 2: Herbicidal rate of 20% or more and less than 40% 1: Herbicidal rate of 5% or more and less than 20% 0: Herbicidal rate of 5% or less (almost no effect)

[4] = test system: directly sowed rice; assay: Test Example 3: effect on crop by foliage application, Wagner pot (Table 18, symbol b); type: in vivo; conditions: 320 g/ha
Summary of the method: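 Plants were sown in alluvial soil held under 0.1–0.5 cm standing water and grown 14 days in a greenhouse at 25–30 °C. An emulsifiable formulation, water-diluted to the set dose, was then sprayed onto the foliage, and effects were scored three weeks later using previously defined criteria.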

[5] = test system: corn; assay: Test Example 4: effect on crop by soil treatment (Table 19, symbol c); type: in vivo
Summary of the method: as §1

[6] = test system: soybean; assay: Test Example 4: effect on crop by soil treatment (Table 19, symbol d); type: in vivo
Summary of the method: as §1

[7] = test system: wheat; assay: Test Example 4: effect on crop by soil treatment (Table 19, symbol e); type: in vivo
Summary of the method: as §1

[8] = test system: beet; assay: Test Example 4: effect on crop by soil treatment (Table 19, symbol f); type: in vivo
Summary of the method: as §1

[9] = test system: rapeseed; assay: Test Example 4: effect on crop by soil treatment (Table 19, symbol g); type: in vivo
Summary of the method: as §1

[10] = test system: corn; assay: Test Example 5: effect on crop by foliage application, plastic box (Table 20, symbol c); type: in vivo; conditions: 320 g/ha
Summary of the method: as §2

[11] = test system: soybean; assay: Test Example 5: effect on crop by foliage application, plastic box (Table 20, symbol d); type: in vivo; conditions: 320 g/ha
Summary of the method: as §2

[12] = test system: wheat; assay: Test Example 5: effect on crop by foliage application, plastic box (Table 20, symbol e); type: in vivo; conditions: 320 g/ha
Summary of the method: as §2

[13] = test system: beet; assay: Test Example 5: effect on crop by foliage application, plastic box (Table 20, symbol f); type: in vivo; conditions: 320 g/ha
Summary of the method: as §2

[14] = test system: rapeseed; assay: Test Example 5: effect on crop by foliage application, plastic box (Table 20, symbol g); type: in vivo; conditions: 320 g/ha
Summary of the method: as §2

[15] = amount of applied herbicide 320 g/ha

## CCCOc1ccc(-c2sc3ccccc3c2-c2c(O)c(C)nn(C)c2=O)cc1 [1-019]
[1]; [15]
  herbicidal effect rating, Q: false cleavers: 0 (Herbicidal rate of 5% or less (almost no effect))
[2]; three weeks after application
  herbicidal effect grade, Q: false cleavers: 3 (Herbicidal rate of 40% or more and less than 70%)

## Cc1nn(C)c(=O)c(-c2c(-c3ccc(OC(C)C)cc3)sc3ccccc23)c1O [1-020]
[1]; [15]
  herbicidal effect rating, Q: false cleavers: 0 (Herbicidal rate of 5% or less (almost no effect))

## CCCCOc1ccc(-c2sc3ccccc3c2-c2c(O)c(C)nn(C)c2=O)cc1 [1-024]
[1]; [15]
  herbicidal effect rating, Q: false cleavers: 0 (Herbicidal rate of 5% or less (almost no effect))
[2]; three weeks after application
  herbicidal effect grade, Q: false cleavers: 4 (Herbicidal rate of 70% or more and less than 90%)

## CCCCOc1ccc(-c2sc3ccccc3c2-c2c(OC(=O)CCC)c(C)nn(C)c2=O)cc1 [1-025]
[1]; [15]
  herbicidal effect rating, Q: false cleavers: 0 (Herbicidal rate of 5% or less (almost no effect))
[2]; three weeks after application
  herbicidal effect grade, Q: false cleavers: 3 (Herbicidal rate of 40% or more and less than 70%)

## CCCC(=O)Oc1c(C)nn(C)c(=O)c1-c1c(-c2ccc(SC)cc2)sc2ccccc12 [1-037]
[1]; [15]
  herbicidal effect rating, Q: false cleavers: 0 (Herbicidal rate of 5% or less (almost no effect))

## Cc1nn(C)c(=O)c(-c2c(-c3ccc4c(c3)OCCO4)sc3ccccc23)c1O [1-089]
[1]; [15]
  herbicidal effect rating, Q: false cleavers: 5 (Herbicidal rate of 90% or more (almost completely withered))

## C=CCOc1ccccc1-c1sc2ccccc2c1-c1c(O)c(C)nn(C)c1=O [1-110]
[2]; AAH 320 g/ha, three weeks after application
  Q: false cleavers, herbicidal effect: 5 (Herbicidal rate of 90% or more (almost completely withered))

## Cc1nn(C)c(=O)c(-c2c(-c3ccc(OCC(F)F)cc3)sc3ccccc23)c1O [1-203]
[2]
  effect on false cleavers (Q): 5 (Herbicidal rate of 90% or more (almost completely withered))

## Cc1nn(C)c(=O)c(-c2c(-c3ccc(F)cc3)sc3ccc(F)cc23)c1O [2-001]
[2]
  effect on false cleavers (Q): 5 (Herbicidal rate of 90% or more (almost completely withered))

## CCCC(=O)Oc1c(C)nn(C)c(=O)c1-c1c(-c2ccc(OC)cc2)sc2ccc(F)cc12 [2-027]
[1]; 320 g/ha
  herbicidal effect rating, Q: false cleavers: 0 (Herbicidal rate of 5% or less (almost no effect))
[2]
  effect on false cleavers (Q): 0 (Herbicidal rate of 5% or less (almost no effect))

## CCCOc1ccc(-c2sc3ccc(F)cc3c2-c2c(OC(=O)CCC)c(C)nn(C)c2=O)cc1 [2-033]
[2]
  effect on false cleavers (Q): 5 (Herbicidal rate of 90% or more (almost completely withered))

## CCCC(=O)Oc1c(C)nn(C)c(=O)c1-c1c(-c2ccc(OC(C)C)cc2)sc2ccc(F)cc12 [2-035]
[2]
  effect on false cleavers (Q): 4 (Herbicidal rate of 70% or more and less than 90%)

## CCCC(=O)Oc1c(C)nn(C)c(=O)c1-c1c(-c2ccc3c(c2)OCO3)sc2ccc(F)cc12 [2-091]
[2]
  herbicidal effect on Q: false cleavers: 4 (Herbicidal rate of 70% or more and less than 90%)

## COc1ccccc1-c1sc2ccc(Cl)cc2c1-c1c(O)c(C)nn(C)c1=O [2-101]
[1]; [15]
  Q: false cleavers, herbicidal effect rating: 5 (Herbicidal rate of 90% or more (almost completely withered))
[2]
  herbicidal effect on Q: false cleavers: 5 (Herbicidal rate of 90% or more (almost completely withered))

## C=CCOC(=O)Oc1c(C)nn(C)c(=O)c1-c1c(-c2ccc(OC(F)F)cc2)sc2ccc(F)cc12 [2-294]
[2]; AAH 320 g/ha
  Q: false cleavers, herbicidal effect (criteria 0-5): 5 (Herbicidal rate of 90% or more (almost completely withered))

## COc1cccc(S(=O)(=O)Oc2c(C)nn(C)c(=O)c2-c2c(-c3ccc(OC(F)F)cc3)sc3ccc(F)cc23)c1 [2-313]
[2]; AAH 320 g/ha
  Q: false cleavers, herbicidal effect (criteria 0-5): 5 (Herbicidal rate of 90% or more (almost completely withered))

## Cc1nn(C)c(=O)c(-c2c(-c3ccc(CSCC(F)(F)F)cc3)sc3ccc(F)cc23)c1O [2-331]
[1]; [15]
  herbicidal effect on Q: false cleavers: 0 (Herbicidal rate of 5% or less (almost no effect))

## COc1ccccc1-c1sc2cc(C)ccc2c1-c1c(O)c(C)nn(C)c1=O [3-049]
[1]; amount of applied herbicide 274 g/ha
  Q: false cleavers, herbicidal effect grade: 3 (Herbicidal rate of 40% or more and less than 70%)
[2]; 274 g/ha, three weeks after application
  Q: false cleavers, herbicidal effect grade: 5 (Herbicidal rate of 90% or more (almost completely withered))

## CCOc1ccccc1-c1sc2cc(OC)ccc2c1-c1c(O)c(C)nn(C)c1=O [3-070]
[1]; amount of applied herbicide 80 g/ha
  Q: false cleavers, herbicidal effect grade: 1 (Herbicidal rate of 5% or more and less than 20%)
[2]; 80 g/ha, three weeks after application
  Q: false cleavers, herbicidal effect grade: 5 (Herbicidal rate of 90% or more (almost completely withered))

## CCCC(=O)Oc1c(C)nn(C)c(=O)c1-c1c(-c2ccc(F)cc2OCC)oc2ccc(C)cc12 [9-010]
[2]; 246 g/ha, three weeks after application
  herbicidal effect on false cleavers (Q): 3 (Herbicidal rate of 40% or more and less than 70%)

## Cc1nn(C)c(=O)c(-c2c(-c3ccc(C#N)cc3)sc3ccccc23)c1O [Compound No. 1-045, 5-hydroxy-2,6-dimethyl-4-(2-(4-cyanophenyl)benzo[b]thiophen-3-yl)pyridazin-3(2H)-one]
[3]
  Effect on crop a: transplanted rice (grade 0-5): 0 (Herbicidal rate of 5% or less (almost no effect))
[4]
  effect on crop b (directly sowed rice), rating 0-5: 0 (Herbicidal rate of 5% or less (almost no effect))
[1]; [15]
  herbicidal effect rating, Q: false cleavers: 4 (Herbicidal rate of 70% or more and less than 90%)
[5]; [15]
  effect rating on crop, c: corn: 0 (Herbicidal rate of 5% or less (almost no effect))
[6]; [15]
  effect rating on crop, d: soybean: 3 (Herbicidal rate of 40% or more and less than 70%)
[7]; [15]
  effect rating on crop, e: wheat: 0 (Herbicidal rate of 5% or less (almost no effect))
[8]; [15]
  effect rating on crop, f: beet: 5 (Herbicidal rate of 90% or more (almost completely withered))
[9]; [15]
  effect rating on crop, g: rapeseed: 5 (Herbicidal rate of 90% or more (almost completely withered))
[2]; three weeks after application
  herbicidal effect grade, Q: false cleavers: 5 (Herbicidal rate of 90% or more (almost completely withered))
[10]; three weeks after application
  effect on crop grade, c: corn: 0 (Herbicidal rate of 5% or less (almost no effect))
[11]; three weeks after application
  effect on crop grade, d: soybean: 1 (Herbicidal rate of 5% or more and less than 20%)
[12]; three weeks after application
  effect on crop grade, e: wheat: 0 (Herbicidal rate of 5% or less (almost no effect))
[13]; three weeks after application
  effect on crop grade, f: beet: 5 (Herbicidal rate of 90% or more (almost completely withered))
[14]; three weeks after application
  effect on crop grade, g: rapeseed: 5 (Herbicidal rate of 90% or more (almost completely withered))
other
  melting point: 240 to 242 °C

## Cc1nn(C)c(=O)c(-c2c(-c3ccc(Cl)cc3)sc3ccc(F)cc23)c1O [Compound No. 2-010, 4-(2-(4-chlorophenyl)-5-fluorobenzo[b]thiophen-3-yl)-5-hydroxy-2,6-dimethylpyridazin-3(2H)-one]
[3]
  Effect on crop a: transplanted rice (grade 0-5): 0 (Herbicidal rate of 5% or less (almost no effect))
[4]
  effect on crop b (directly sowed rice), rating 0-5: 0 (Herbicidal rate of 5% or less (almost no effect))
[5]; 320 g/ha
  effect rating on crop, c: corn: 0 (Herbicidal rate of 5% or less (almost no effect))
[6]; 320 g/ha
  effect rating on crop, d: soybean: 0 (Herbicidal rate of 5% or less (almost no effect))
[7]; 320 g/ha
  effect rating on crop, e: wheat: 0 (Herbicidal rate of 5% or less (almost no effect))
[8]; 320 g/ha
  effect rating on crop, f: beet: 3 (Herbicidal rate of 40% or more and less than 70%)
[9]; 320 g/ha
  effect rating on crop, g: rapeseed: 3 (Herbicidal rate of 40% or more and less than 70%)
[10]; 3 weeks after application
  effect on corn (c): 0 (Herbicidal rate of 5% or less (almost no effect))
[11]; 3 weeks after application
  effect on soybean (d): 3 (Herbicidal rate of 40% or more and less than 70%)
[12]; 3 weeks after application
  effect on wheat (e): 0 (Herbicidal rate of 5% or less (almost no effect))
[13]; 3 weeks after application
  effect on beet (f): 5 (Herbicidal rate of 90% or more (almost completely withered))
[14]; 3 weeks after application
  effect on rapeseed (g): 5 (Herbicidal rate of 90% or more (almost completely withered))
other
  melting point: 258 to 259 °C
